{
  "source": "patent US8716437B2",
  "about": "(priority 2007, dated 2014)",
  "key": {"Kv1.3": {"molecular_target": "Kv1.3 (Homo sapiens, UniProt P22001)", "sequence (P22001 whole entry)": "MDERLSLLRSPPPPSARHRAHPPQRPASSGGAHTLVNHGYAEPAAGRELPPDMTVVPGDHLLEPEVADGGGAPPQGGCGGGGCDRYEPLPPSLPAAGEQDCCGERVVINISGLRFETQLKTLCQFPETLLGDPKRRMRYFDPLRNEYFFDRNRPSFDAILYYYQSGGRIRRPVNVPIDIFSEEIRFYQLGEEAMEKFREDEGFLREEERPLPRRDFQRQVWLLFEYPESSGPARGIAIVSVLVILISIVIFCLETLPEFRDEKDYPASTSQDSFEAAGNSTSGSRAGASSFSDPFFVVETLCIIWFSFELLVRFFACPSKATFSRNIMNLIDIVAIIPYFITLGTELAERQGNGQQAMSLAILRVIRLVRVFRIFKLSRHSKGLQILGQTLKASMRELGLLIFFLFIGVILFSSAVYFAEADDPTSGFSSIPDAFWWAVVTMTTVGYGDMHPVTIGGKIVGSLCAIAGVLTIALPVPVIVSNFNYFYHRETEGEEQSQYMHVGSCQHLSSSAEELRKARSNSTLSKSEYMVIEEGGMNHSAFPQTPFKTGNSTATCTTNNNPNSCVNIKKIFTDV", "assay": "Two electrode voltage clamp, Xenopus oocytes, Kv1.3", "type": "cell-based", "design": "expressed in transfected cells; host or cells: Xenopus laevis oocytes (cRNA injection)", "text": "Thereafter, MK-1 was synthesized. […] The blocking of […] by MK-1 is represented by filled circles; the blocking of Kv1.2 by MK-1 is represented by filled diamonds; and the blocking of Kv1.1 by MK-1 is represented by filled triangles.\n(§1) To examine the effect of mokatoxin-1 on activity of potassium ion channels, cDNA encoding Rattus Kv1.1 (NCBI accession number NM_173095), Rattus Kv1.2 (NM_012970), Homo Kv1.3 (NM_002232), or Mus BK (NM_010610) were subcloned into oocyte expression vectors based on PCR3.1 and pGEM. cRNA synthesis was performed with T7 polymerase and the mMessageMachine Kit (Ambion, Austin, Tex.) according to manufacturers instructions. cRNA concentrations were determined spectroscopically. For two electrode voltage clamp recordings oocytes were extracted from Xenopus laevis and defoliculated with Collagenase Type 2 (Worthington, Lakewood, N.J.). Oocytes were maintained in ND91 solution containing 2 mM KCl, 91 mM NaCl, 1 mM MgCl2, 1.8 mM CaCl2, and 5 mM HEPES, pH 7.5, supplemented with 1% Penicillin/Streptomycin (Cellgro, Hemdon, Va.) and 0.1% Gentamycin sulfate (Gibco, Grand Island, N.Y.)) at 16° C. Stage V and VI oocytes were injected with 8 pg to 4 ng cRNA, and currents recorded 1 to 4 days later.\n(§2) For dose-response measurements of toxin block of Kv1.1, Kv1,2, or Kv1.3 peak currents were recorded during a 500 ms step to 0 mV from a holding voltage of −100 mV, followed by a 200 ms step to −135 mV every 30 s. To determine the kinetics of toxin block oocytes were held at −100 mV and stepped to the test voltage of 0 mV for 100 ms followed by a 200 ms duration step to −135 mV every 2 s. BK currents were recorded during a 50 ms step to +60 mV from a holding voltage of −80 mV, followed by a 40 ms step to −100 mV every 3 s. The perfusion solution contained 2 mM KCl, 96 mM NaCl, 1 mM MgCl2, 1.8 mM CaCl2, 5 mM HEPES, pH 7.5 and 0.1% fatty acid ultra-free BSA fraction V (Roche Diagnostics Corporation, Indianapolis, Ind.). Data acquisition and processing was performed with an oocyte clamp OC-725B (Warner Instruments Corporation, Hamden, Conn.), pCLAMP (Axon, Sunnyvale, Calif.), IGOR Pro (WaveMetrics, Lake Oswego, Oreg.), and Origin6.1 (OriginLab Corporation, Northampton, Mass.) softwares. The equilibrium dissociation rates (KD) for block of Kv1.1, Kv1.2, and Kv1.3 by mokatoxin-1 were determined by fitting the dose-response data and kon and koff were calculated as described by Goldstein and Miller, 1993 (Biophys J. 1993 65 (4):1613-1619)."}, "Kv1.1": {"molecular_target": "T1, Kv1.1 (Rattus norvegicus, UniProt P10499)", "T1 construct": "expressed in transfected cells; host or cells: Xenopus laevis oocytes (cRNA injection)", "T1 sequence (P10499 whole entry)": "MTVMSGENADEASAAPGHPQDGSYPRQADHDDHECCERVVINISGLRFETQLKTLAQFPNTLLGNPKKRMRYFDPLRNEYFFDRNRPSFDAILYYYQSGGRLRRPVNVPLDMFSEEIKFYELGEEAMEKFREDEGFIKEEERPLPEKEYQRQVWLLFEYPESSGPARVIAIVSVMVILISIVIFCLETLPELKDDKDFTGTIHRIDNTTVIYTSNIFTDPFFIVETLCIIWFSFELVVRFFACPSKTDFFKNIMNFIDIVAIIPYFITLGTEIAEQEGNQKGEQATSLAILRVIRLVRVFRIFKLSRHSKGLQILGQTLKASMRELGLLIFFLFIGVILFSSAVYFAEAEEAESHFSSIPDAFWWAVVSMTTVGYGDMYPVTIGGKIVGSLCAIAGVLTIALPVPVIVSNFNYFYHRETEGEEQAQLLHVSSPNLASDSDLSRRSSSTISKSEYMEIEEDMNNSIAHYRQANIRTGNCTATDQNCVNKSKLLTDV", "assay": "Two electrode voltage clamp, Xenopus oocytes, Kv1.1", "type": "cell-based", "method": "as §1, §2"}, "guinea pig ileum": {"test_system": "guinea pig ileum", "details": "J Pharmacol Exp Ther. 1999; cited from earlier work"}, "BK": {"molecular_target": "T2, BK (Mus musculus, UniProt Q08460)", "T2 construct": "expressed in transfected cells; host or cells: Xenopus laevis oocytes (cRNA injection)", "T2 sequence (Q08460 whole entry)": "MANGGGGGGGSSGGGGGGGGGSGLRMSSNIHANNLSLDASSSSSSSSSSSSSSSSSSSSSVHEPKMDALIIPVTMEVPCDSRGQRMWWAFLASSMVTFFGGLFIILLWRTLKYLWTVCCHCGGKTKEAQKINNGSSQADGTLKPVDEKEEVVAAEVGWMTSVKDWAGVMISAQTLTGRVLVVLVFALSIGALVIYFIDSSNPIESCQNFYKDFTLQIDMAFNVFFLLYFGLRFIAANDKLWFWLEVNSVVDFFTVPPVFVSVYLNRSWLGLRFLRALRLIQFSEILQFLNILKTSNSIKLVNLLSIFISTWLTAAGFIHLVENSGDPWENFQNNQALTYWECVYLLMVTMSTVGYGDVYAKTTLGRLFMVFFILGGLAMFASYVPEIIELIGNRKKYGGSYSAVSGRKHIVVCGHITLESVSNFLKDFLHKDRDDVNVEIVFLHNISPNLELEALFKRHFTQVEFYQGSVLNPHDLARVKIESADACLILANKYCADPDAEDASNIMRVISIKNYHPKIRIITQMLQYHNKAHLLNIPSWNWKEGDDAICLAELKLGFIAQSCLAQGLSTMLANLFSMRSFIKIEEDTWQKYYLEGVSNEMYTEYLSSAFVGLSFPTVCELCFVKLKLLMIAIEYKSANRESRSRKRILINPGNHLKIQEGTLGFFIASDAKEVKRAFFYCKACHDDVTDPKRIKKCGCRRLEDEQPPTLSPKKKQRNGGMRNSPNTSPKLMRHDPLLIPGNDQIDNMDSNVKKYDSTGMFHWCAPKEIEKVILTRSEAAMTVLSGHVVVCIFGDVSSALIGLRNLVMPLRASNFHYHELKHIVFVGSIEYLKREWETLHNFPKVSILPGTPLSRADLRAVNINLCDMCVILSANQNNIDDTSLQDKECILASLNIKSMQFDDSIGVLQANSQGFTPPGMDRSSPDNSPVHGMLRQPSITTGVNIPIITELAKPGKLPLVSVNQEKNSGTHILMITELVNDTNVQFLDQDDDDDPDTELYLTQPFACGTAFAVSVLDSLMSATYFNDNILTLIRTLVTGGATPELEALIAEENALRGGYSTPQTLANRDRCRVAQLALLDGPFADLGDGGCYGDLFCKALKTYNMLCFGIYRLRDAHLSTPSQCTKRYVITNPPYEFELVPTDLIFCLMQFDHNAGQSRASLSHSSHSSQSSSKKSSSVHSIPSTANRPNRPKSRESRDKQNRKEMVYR", "assay": "Two electrode voltage clamp, Xenopus oocytes, BK", "type": "cell-based", "method": "as §1, §2"}, "Kv1.2": {"molecular_target": "T3, Kv1.2 (Rattus norvegicus, UniProt P63142)", "T3 construct": "expressed in transfected cells; host or cells: Xenopus laevis oocytes (cRNA injection)", "T3 sequence (P63142 whole entry)": "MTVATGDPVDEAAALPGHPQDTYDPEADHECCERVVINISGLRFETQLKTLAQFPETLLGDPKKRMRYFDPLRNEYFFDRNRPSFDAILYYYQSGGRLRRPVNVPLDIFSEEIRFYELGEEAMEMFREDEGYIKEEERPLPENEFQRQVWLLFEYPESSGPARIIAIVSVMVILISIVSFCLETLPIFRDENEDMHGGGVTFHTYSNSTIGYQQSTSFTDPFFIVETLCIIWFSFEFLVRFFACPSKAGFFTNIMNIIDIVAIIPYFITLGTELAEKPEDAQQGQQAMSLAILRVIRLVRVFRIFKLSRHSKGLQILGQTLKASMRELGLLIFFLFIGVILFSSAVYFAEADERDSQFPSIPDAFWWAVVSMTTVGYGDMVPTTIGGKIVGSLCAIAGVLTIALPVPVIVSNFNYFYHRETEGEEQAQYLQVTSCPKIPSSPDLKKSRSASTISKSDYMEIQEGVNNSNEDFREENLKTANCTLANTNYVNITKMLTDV", "assay": "Two electrode voltage clamp, Xenopus oocytes, Kv1.2", "type": "cell-based", "method": "as §1, §2"}, "[1]": {"test_system": "antiserum to sarafotoxin s6b (anti-S6b)", "assay": "Phage panning on immobilized antiserum to sarafotoxin s6b", "type": "binding", "details": "mixture of five ligands, one round of panning", "text": "A mixture of five ligands: (1) kaliotoxin-1; (2) sarafotoxin s6b; (3) Dendroaspis natriuretic peptide (DNP); (4) fasciculin-2; and (5) camel antibody (CVHH); were mixed and panned on purified receptors (KcsA-Kv1.3). The control was immobilized antiserum to sarafotoxin s6b (anti-S6b). Input and output ligands were verified by genotyping. In this system, shown in Table 6, a 3.6-fold enrichment is seen after one-round of panning."}},
  "data": [
    {"smiles": "CC[C@H](C)[C@H](NC(=O)[C@H](CCC(=O)O)NC(=O)[C@@H](NC(=O)CN)C(C)C)C(=O)N[C@@H](CC(N)=O)C(=O)N[C@H](C(=O)N[C@@H](CCCCN)C(=O)N[C@H]1CSSC[C@@H]2NC(=O)[C@H](CCCCN)NC(=O)CNC(=O)[C@H](Cc3ccccc3)NC(=O)[C@H](CCCNC(=N)N)NC(=O)[C@H](CCSC)NC(=O)CNC(=O)[C@H](C)NC(=O)[C@H](CC(=O)O)NC(=O)[C@H](CCCCN)NC(=O)[C@@H]3CSSC[C@@H](C(=O)N[C@H](C(=O)N4CCC[C@H]4C(=O)N[C@@H](CCCCN)C(=O)O)[C@@H](C)O)NC(=O)[C@H](Cc4c[nH]cn4)NC(=O)[C@H](CSSC[C@H](NC(=O)[C@H](CCC(N)=O)NC(=O)[C@@H]4CCCN4C(=O)[C@H](CO)NC(=O)CNC(=O)[C@H](CO)NC1=O)C(=O)N[C@@H](CC(C)C)C(=O)N[C@@H](CCCCN)C(=O)N1CCC[C@H]1C(=O)N3)NC(=O)[C@H](CCCCN)NC(=O)[C@H](CCCNC(=N)N)NC(=O)[C@H](CC(N)=O)NC(=O)[C@H](CCSC)NC2=O)C(C)C", "note": "[KTX, kaliotoxin-1]", "values": [
      {"measurement": "IC50", "setting": "Kv1.3", "result": 0.5, "unit": "nM"},
      {"measurement": "Koff [s]^−1", "setting": "Kv1.3; hKv1.3", "result": "0.0070 ± 0.0009 [s]^−1"},
      {"measurement": "Kon [M · s]^−1", "setting": "Kv1.3; hKv1.3", "result": "8 · 10^8 ± 1 · 10^8 [M · s]^−1"},
      {"measurement": "IC50", "setting": "Kv1.1", "result": 0.1, "unit": "nM"},
      {"measurement": "Koff [s]^−1", "setting": "Kv1.1; rKv1.1", "result": "0.009 ± 0.002 [s]^−1"},
      {"measurement": "Kon [M · s]^−1", "setting": "Kv1.1; rKv1.1", "result": "30 · 10^6 ± 16 · 10^6 [M · s]^−1"},
      {"measurement": "ileum contractions", "setting": "guinea pig ileum", "result": "contractions"},
      {"measurement": "IC50", "setting": "BK", "result": "~5", "unit": "nM"},
      {"measurement": "Koff [s]^−1", "setting": "BK; mBK", "result": "0.0211 ± 0.0008 [s]^−1"},
      {"measurement": "Kon [M · s]^−1", "setting": "BK; mBK", "result": "21 · 10^3 ± 4 · 10^3 [M · s]^−1"},
      {"measurement": "IC50", "setting": "Kv1.2", "result": 1.4, "unit": "nM"},
      {"measurement": "Koff [s]^−1", "setting": "Kv1.2; rKv1.2", "result": "0.21 ± 0.01 [s]^−1"},
      {"measurement": "Kon [M · s]^−1", "setting": "Kv1.2; rKv1.2", "result": "13 · 10^6 ± 3 · 10^6 [M · s]^−1"},
      {"measurement": "Output (% Ligands) Anti-S6b (n = 20)", "setting": "[1]", "result": 0, "unit": "%"}
    ]}
  ]
}
